In patent publication US12594282B2, “Use of small molecule compounds in the treatment of diseases mediated by lung epithelial cell injury and/or vascular endothelial cell injury” (Guangzhou Cellprotek Pharmaceutical Co., Ltd., priority 2020, dated 2026):

Legend:
[1] = tested on: rat vascular endothelial cells (RAOEC); experiment: OGD-R injury model, LDH detection, RAOEC; type: cell-based; conditions: OGD 4 hours, restoration 24 hours, 1, 3, 10 μM, prophylactic (1 hour before OGD) or therapeutic (at restoration)
Experimental: (§1) HUVEC cells were cultured in modified DMEM medium containing 10% fetal bovine serum. When the cells reached about 80% confluence, the cells were digested with 0.25% trypsin, and then pipetted evenly with modified DMEM containing 10% fetal bovine serum. The cell concentration was adjusted to 1×10^5 cells/mL, and the cells were seeded at 400 uL/well in a 24-well plate, and the experiment was carried out when the cells grew to about 70% confluence. RAOEC cells were cultured in high-glucose DMEM medium containing 10% fetal bovine serum, and the seeding conditions were the same as those for HUVECs.
(§2) The hypoxia workstation was set to have an oxygen concentration of 1% (1% O2, 5% CO2, 94% N2), a temperature of 37° C., and a humidity of 85%. A sugar-free DMEM medium was placed in the hypoxia workstation for pre-hypoxia for 3 hours. The medium in the culture plate was aspirated, and the plate was washed twice with preheated sugar-free DMEM medium, and 100 uL of sugar-free DMEM medium was added to each well. […]
(§3) At the end of the experiment, 50 uL of medium was taken from each well into a 96-well plate, and then cytotoxicity was detected according to the operating instructions of the LDH detection kit. The results were calculated as follows: […]

NR4A3 mRNA = NR4A3 mRNA under OGD-R, HUVEC (real-time fluorescent quantitative PCR); type: cell-based, human; conditions: 10 μM given at restoration
Experimental: HUVEC cells were cultured in modified DMEM medium containing 10% fetal bovine serum. When the cells reached about 80% confluence, the cells were digested with 0.25% trypsin, and then pipetted evenly with modified DMEM containing 10% […]. The cell concentration was adjusted to 1×10^5 cells/mL, and the cells were seeded at 400 uL/well in a 24-well plate, and the experiment was carried out when the cells grew to about 70% confluence. RAOEC cells were cultured in high-glucose DMEM medium containing 10% fetal bovine serum, and the seeding conditions were the same as those of HUVEC. During the OGD-R injury treatment, the hypoxia workstation was set to have an oxygen concentration of 1% (1% O2, 5% CO2, 94% N2), a temperature of 37° C., and a humidity of 85%. A sugar-free DMEM medium was placed in the hypoxia workstation for pre-hypoxia for 3 hours. The medium in the culture plate was aspirated, and the plate was washed twice with preheated sugar-free DMEM medium, and 100 uL of sugar-free DMEM medium was added to each well. The culture plate was placed in the hypoxia workstation, and 300 uL of pre-hypoxic sugar-free DMEM medium was added to each well, and then the culture plate was placed in the hypoxia workstation for additional hypoxia for 4 hours. Restoration was then performed. […]

[2] = tested on: Human umbilical vein endothelial cells (HUVEC); experiment: OGD-R injury model, LDH detection, HUVEC; type: cell-based; conditions: OGD 4 hours, restoration 24 hours, 1, 3, 10 μM, prophylactic (1 hour before OGD) or therapeutic (at restoration)
Experimental: as §1, §2, §3

For `C[C@@]12CCCC1C1C[C@@H](O)[C@]3(O)C[C@@H](O)CC[C@]3(C)C1CC2` (stereo partly drawn) [YC-6, 5α-androst-3β,5,6β-triol], the “OGD-R-induced increase in LDH release” value [1] was “significantly reduced the OGD-R-induced increase in LDH release in a dose-dependent manner”, the “transcription level of NR4A3 (relative mRNA expression)” value (NR4A3 mRNA) was “did not significantly up-regulate the transcription level of NR4A3” and the “OGD-R-induced increase in LDH release” value [2] was “significantly reduced the OGD-R-induced increase in LDH release in a dose-dependent manner”.
